Assay results published in patent US20180113115A1, “SCREENING ASSAYS BASED ON MAG AND/OR ABHD6 FOR SELECTING INSULIN SECRETION PROMOTING AGENT” (VAL-CHUM, LIMITED PARTNERSHIP, priority 2010, published 2018).

Tests used:
[1] = tested on: INS832/13 cells; test: RNAi-knockdown of ABHD6, insulin secretion; format: cell-based; settings: siRNA transfection; for glucose-stimulated insulin secretion: 10 mM glucose
Experimental: INS 832/13 cells were plated at a density of 150 000 cells/well in a 12-well plate, in 1 ml complete RPMI medium, one day prior to RNAi transfection. On the next day, RNAi duplexes and lipofectamine-RNAimax™ were prepared separately. Then 24 pmol of each RNAi duplex was diluted in 100 μl Opti-MEM™ without serum and mixed gently. And at the same time, 2 μl of lipofectamine-RNAimax was diluted in 100 μl Opti-MEM without serum and mixed gently. Then the diluted RNAi duplex and RNAi-max reagents were mixed gently (200 μl volume) and incubated at room temperature for 20 min. This 200 μl mixture (which gives a final concentration of […] of RNAi), prepared separately for each well, was then added to the corresponding well with approximately 30% confluent INS cells. Following RNAi transfection, cells were incubated for 16 to 72 h. in a CO2 incubator at 37° C. Then the cells were starved by incubation in RPMI-1640 with 10% FBS and 1 mM glucose for 2 h. followed by washing one time with KRBH (containing 1 mM glucose and 0.5% BSA) and pre-incubation with the same KRBH for 45 min. Finally for following insulin secretion, cells were incubated in the KRBH buffer with 1 mM or 10 mM glucose for 2 h. The media and the cells were collected for insulin and protein assay as described above. The ABHD6-directed siRNAs and the control siRNAs were obtained from Ambion (Catalog #4390771; […]tt (ABHD6-6 sense or SEQ ID NO: 9), […]gt (ABHD6-6 anti-sense or SEQ ID NO: 10), […]tt (ABHD6-5 sense or SEQ ID NO: 11), […]at (ABHD6-5 anti-sense or SEQ ID NO: 12)). ABHD6-6 sense and antisense oligos are used in a similar fashion. Control siRNAs, which are non-targeting siRNAs with limited sequence similarity to known genes were obtained from Ambion (Catalog #AM4613 and AM4642) and were used to transfect the cells as described above. Additionally, non-treated cells and pBS (plasmid vector Bluescript) transfected cells were used as controls as well. Results of insulin secretion and ABHD6 expression in ABHD6-siRNA transfected cells were compared with different controls.

[2] = tested on: TRPV1-R; settings: in vivo; cited from earlier work

Row | Molecule | glucose-stimulated insulin secretion [1] | plasma insulin levels [2] | basal insulin secretion ([1]; 1 mM glucose)
1 | ABHD6-siRNA6: annealed ABHD6-6 sense (SEQ ID NO: 9) and anti-sense (SEQ ID NO: 10) oligos, ABHD6-directed siRNA from Ambion (sense CGGAAAUUGUUUUUGGAAATT; antisense UUUCCAAAAACAAUUUCCGGT; chemistry not given here) | significantly elevated |  | 
2 | C=C(C)[C@]12C[C@@H](C)[C@@]34O[C@](Cc5ccccc5)(O[C@@H]1[C@@H]3C=C(COC(=O)Cc1ccc(O)c(OC)c1)C[C@]1(O)C(=O)C(C)=C[C@@H]41)O2 [resiniferatoxin] |  | elevates plasma insulin levels | 
3 | ABHD6-siRNA5: annealed ABHD6-5 sense (SEQ ID NO: 11) and anti-sense (SEQ ID NO: 12) oligos, ABHD6-directed siRNA from Ambion (sense CAGUUUGUAGAAUGCCUUATT; antisense UAAGGCAUUCUACAAACUGAT; chemistry not given here) | significantly elevated |  | increased
